In data set [1] the target is Tyrosine-protein kinase Lck (Homo sapiens, UniProt P06239). As to the kind of experiment: Inhibition of LCK.
The target of data set [2] is Serine/threonine-protein kinase PLK3 (Homo sapiens, UniProt Q9H4B4). The experiment in a line: Inhibition of PLK3.
The target in the next data set is T1, Aurora kinase A (Homo sapiens, UniProt O14965).
T1 sequence (O14965 whole entry): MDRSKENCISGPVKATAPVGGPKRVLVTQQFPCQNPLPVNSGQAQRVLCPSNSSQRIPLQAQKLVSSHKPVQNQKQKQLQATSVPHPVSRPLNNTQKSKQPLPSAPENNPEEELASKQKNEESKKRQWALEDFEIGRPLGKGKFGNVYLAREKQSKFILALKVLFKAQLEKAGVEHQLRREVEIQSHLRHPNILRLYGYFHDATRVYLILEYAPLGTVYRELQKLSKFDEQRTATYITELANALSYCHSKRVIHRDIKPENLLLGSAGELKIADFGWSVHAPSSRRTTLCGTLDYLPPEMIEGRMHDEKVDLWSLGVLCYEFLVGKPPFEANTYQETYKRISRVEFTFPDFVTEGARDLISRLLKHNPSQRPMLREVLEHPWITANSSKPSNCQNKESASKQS
The experiment in a line: Inhibition of Aurora A.

Another data set concerns the target T2, Ephrin type-B receptor 4 (Homo sapiens, UniProt P54760).
T2 sequence (P54760 whole entry): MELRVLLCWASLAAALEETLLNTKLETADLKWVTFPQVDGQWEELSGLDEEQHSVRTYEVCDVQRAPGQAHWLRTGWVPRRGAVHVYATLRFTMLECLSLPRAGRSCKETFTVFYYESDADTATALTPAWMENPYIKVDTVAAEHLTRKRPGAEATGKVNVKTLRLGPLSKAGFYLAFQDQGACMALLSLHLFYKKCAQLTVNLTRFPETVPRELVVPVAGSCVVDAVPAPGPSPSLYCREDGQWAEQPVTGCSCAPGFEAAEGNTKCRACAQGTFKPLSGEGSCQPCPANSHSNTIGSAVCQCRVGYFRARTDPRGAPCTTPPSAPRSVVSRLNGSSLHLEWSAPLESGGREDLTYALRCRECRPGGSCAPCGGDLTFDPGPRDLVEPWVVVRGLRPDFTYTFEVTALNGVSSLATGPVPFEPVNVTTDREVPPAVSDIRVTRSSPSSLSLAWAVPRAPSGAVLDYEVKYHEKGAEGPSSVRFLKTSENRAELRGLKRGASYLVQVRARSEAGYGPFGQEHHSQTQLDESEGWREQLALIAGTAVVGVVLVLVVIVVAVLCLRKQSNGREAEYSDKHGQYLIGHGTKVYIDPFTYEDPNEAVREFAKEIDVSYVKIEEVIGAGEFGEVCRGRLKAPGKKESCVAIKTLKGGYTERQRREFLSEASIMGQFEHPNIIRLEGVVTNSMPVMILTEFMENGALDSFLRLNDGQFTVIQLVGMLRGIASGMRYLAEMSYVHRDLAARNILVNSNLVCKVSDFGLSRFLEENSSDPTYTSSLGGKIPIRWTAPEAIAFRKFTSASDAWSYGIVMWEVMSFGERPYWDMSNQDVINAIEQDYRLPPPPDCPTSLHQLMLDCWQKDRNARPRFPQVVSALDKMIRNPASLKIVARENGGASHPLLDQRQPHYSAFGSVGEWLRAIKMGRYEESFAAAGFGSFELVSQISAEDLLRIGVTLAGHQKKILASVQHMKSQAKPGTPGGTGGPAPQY
As to the kind of experiment: Inhibition of EPHB4.

In data set [3] the target is Vascular endothelial growth factor receptor 2 (Homo sapiens, UniProt P35968). The experiment in a line: Inhibition of KDR.
The target of data set [4] is Ribosomal protein S6 kinase alpha-3 (Homo sapiens, UniProt P51812). The experiment in a line: Inhibition of RSK2.
Data set [5] addresses Mitogen-activated protein kinase 1 (Homo sapiens, UniProt P28482). The experiment in a line: Inhibition of ERK2.
The target in data set [6] is T3, Calcium/calmodulin-dependent protein kinase type IV (Homo sapiens, UniProt Q16566).
T3 sequence (Q16566 whole entry): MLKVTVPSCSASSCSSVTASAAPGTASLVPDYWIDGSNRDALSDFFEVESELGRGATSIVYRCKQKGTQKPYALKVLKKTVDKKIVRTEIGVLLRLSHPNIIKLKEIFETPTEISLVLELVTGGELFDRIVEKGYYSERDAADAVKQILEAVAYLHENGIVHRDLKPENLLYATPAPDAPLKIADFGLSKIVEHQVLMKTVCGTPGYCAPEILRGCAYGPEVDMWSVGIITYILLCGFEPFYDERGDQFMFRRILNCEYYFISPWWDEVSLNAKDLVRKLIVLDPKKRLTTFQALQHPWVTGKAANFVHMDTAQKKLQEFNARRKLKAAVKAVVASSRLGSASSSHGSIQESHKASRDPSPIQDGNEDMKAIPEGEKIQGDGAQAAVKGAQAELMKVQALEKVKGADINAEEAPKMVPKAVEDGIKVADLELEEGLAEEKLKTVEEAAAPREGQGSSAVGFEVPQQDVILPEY
As to the kind of experiment: Inhibition of CAMK4.

The target in data set [7] is Protein kinase C alpha type (Homo sapiens, UniProt P17252). The experiment in a line: Inhibition of PKCA.
Data set [8] in a line: AUC (0 to 24 hrs) in Sprague-Dawley rat at 10 mg/kg, iv. Type of data set: ADME, organism-based. More on the design: time < 24 hr, dose 10 mg/kg, route intravenous. The conditions noted are these: plasma.
Data set [9] is described as follows: Oral AUC in Sprague-Dawley rat at 30 mg/kg, po. The settings on record: in vivo. It is filed as ADME, organism-based. More on the design: dose 30 mg/kg, route oral.
Data set [10] is described as follows: Oral bioavailability in CD1 mouse at 50 mg/kg. It is filed as ADME, organism-based. The settings on record: in vivo.
A short description of data set [11]: Clearance in cynomolgus monkey at 0.3 mg/kg, iv. On the set-up: dose 0.3 mg/kg, route intravenous. The settings on record: in vivo. It is filed as ADME, organism-based, Macaca fascicularis.
Data set [12] in a line: AUC (0 to 24 hrs) in cynomolgus monkey at 30 mg/kg, po. Type of data set: ADME, organism-based, Macaca fascicularis. On the set-up: time < 24 hr, dose 30 mg/kg, route oral. The settings on record: plasma.
The nature of data set [13]: Clearance in Beagle dog at 0.3 mg/kg, iv. The conditions noted are these: in vivo. On the set-up: dose 0.3 mg/kg, route intravenous. It is filed as ADME, organism-based, Canis lupus familiaris.
The nature of data set [14]: Oral bioavailability in cynomolgus monkey at 30 mg/kg. The conditions noted are these: in vivo. It is filed as ADME, organism-based, Macaca fascicularis.
Data set [15] is described as follows: Clearance in Sprague-Dawley rat at 10 mg/kg, iv. It is filed as ADME, organism-based. On the set-up: dose 10 mg/kg, route intravenous. The settings on record: in vivo.
Data set [16] in a line: Oral bioavailability in Sprague-Dawley rat at 30 mg/kg. It is filed as ADME, organism-based. The settings on record: in vivo.
The nature of data set [17]: AUC (0 to 24 hrs) in CD1 mouse at 3 mg/kg, iv. On the set-up: time < 24 hr, dose 3 mg/kg, route intravenous. The conditions noted are these: plasma. It is filed as ADME, organism-based.
Data set [18] in a line: AUC (0 to 24 hrs) in Sprague-Dawley rat at 30 mg/kg, po. The settings on record: plasma. Type of data set: ADME, organism-based. On the set-up: time < 24 hr, dose 30 mg/kg, route oral.
The target of data set [19] is Serine/threonine-protein kinase Chk1 (Homo sapiens, UniProt O14757). The experiment in a line: Inhibition of CHK1.
A short description of data set [20]: Plasma clearance in rat. It is filed as ADME, organism-based.
Data set [21] in a line: Clearance in CD1 mouse at 3 mg/kg, iv. Type of data set: ADME, organism-based. On the set-up: dose 3 mg/kg, route intravenous. The settings on record: in vivo.
The target of data set [22] is Interleukin-1 receptor-associated kinase 4 (Homo sapiens, UniProt Q9NWZ3). The experiment in a line: Inhibition of IRAK4.
Data set [23] is described as follows: AUC (0 to 6 hrs) in rat at 10 mg/kg, po. The settings on record: plasma. On the set-up: time < 6 hr, dose 10 mg/kg, route oral. It is filed as ADME, organism-based.
The nature of data set [24]: AUC (0 to 24 hrs) in CD1 mouse at 50 mg/kg, po. More on the design: time < 24 hr, dose 50 mg/kg, route oral. It is filed as ADME, organism-based. The settings on record: plasma.
Data set [25] in a line: Clearance in cynomolgus monkey at 1 mg/kg, iv. Type of data set: ADME, organism-based, Macaca fascicularis. More on the design: dose 1 mg/kg, route intravenous. The conditions noted are these: in vivo.
Data set [26] is described as follows: AUC (0 to 24 hrs) in cynomolgus monkey at 1 mg/kg, iv. Type of data set: ADME, organism-based, Macaca fascicularis. More on the design: time < 24 hr, dose 1 mg/kg, route intravenous. The settings on record: plasma.

Bounds are passed on as bounds.

Results on three compounds are retold here after ChEMBL document CHEMBL1649074, “Aurora kinase inhibitors based on the imidazo[1,2-a]pyrazine core: fluorine and deuterium incorporation improve oral absorption and exposure” (J Med Chem, 2011).

In general, IC50 refers to the concentration that inhibits the measured activity by half. For orientation: AUC(0-t) means the area under the concentration-time curve up to a stated or last time point. What is called AUC is concentration integrated over time. By bioavailability is commonly meant the share of a dose that reaches the circulation, judged against a reference dose that is usually intravenous. The term clearance denotes the volume of plasma or blood freed of the substance per unit of time.

Sequence of Vascular endothelial growth factor receptor 2 (P35968 whole entry): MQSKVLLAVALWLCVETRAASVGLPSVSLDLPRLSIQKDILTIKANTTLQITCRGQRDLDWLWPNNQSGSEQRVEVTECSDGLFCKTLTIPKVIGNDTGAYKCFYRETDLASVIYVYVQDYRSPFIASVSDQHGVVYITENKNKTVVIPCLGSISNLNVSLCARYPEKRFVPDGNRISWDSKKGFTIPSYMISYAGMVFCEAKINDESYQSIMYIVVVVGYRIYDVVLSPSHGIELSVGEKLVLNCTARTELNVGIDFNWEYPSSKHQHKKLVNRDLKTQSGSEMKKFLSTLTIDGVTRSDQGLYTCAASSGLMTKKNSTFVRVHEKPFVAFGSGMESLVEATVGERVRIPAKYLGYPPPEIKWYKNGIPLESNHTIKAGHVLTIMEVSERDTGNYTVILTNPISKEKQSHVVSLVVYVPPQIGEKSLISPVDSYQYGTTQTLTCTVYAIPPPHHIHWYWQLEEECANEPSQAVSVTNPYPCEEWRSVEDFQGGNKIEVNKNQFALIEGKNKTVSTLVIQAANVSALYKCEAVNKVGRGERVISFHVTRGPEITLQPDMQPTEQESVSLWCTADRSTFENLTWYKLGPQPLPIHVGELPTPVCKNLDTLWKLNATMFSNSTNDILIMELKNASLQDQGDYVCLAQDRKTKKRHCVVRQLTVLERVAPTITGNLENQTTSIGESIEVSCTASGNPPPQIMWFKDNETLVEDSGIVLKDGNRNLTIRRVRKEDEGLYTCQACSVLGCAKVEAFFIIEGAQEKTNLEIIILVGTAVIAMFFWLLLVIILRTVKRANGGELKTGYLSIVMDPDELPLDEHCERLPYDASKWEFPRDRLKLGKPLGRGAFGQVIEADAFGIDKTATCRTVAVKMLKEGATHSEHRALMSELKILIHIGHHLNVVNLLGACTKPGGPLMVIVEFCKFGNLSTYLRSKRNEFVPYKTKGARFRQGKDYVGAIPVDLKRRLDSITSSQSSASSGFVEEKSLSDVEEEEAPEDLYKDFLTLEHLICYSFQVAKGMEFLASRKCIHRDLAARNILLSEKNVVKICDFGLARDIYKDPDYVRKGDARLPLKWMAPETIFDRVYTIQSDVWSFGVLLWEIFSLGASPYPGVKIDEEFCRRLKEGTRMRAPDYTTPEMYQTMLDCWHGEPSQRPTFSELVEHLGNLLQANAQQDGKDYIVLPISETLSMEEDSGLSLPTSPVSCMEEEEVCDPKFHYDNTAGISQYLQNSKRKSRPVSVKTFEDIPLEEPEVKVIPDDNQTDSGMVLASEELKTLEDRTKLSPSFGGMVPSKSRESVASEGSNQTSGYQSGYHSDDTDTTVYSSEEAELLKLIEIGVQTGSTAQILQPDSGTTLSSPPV
Sequence of Mitogen-activated protein kinase 1 (P28482 whole entry): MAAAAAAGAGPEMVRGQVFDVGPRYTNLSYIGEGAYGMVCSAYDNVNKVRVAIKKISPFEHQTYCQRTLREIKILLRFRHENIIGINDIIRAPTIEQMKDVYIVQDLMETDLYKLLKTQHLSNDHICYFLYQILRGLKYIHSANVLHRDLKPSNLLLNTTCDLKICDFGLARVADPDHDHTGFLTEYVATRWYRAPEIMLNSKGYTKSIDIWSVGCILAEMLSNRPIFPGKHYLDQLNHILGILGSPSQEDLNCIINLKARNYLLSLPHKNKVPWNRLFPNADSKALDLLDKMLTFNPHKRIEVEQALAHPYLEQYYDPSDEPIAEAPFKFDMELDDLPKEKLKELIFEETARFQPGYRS
Sequence of Serine/threonine-protein kinase PLK3 (Q9H4B4 whole entry): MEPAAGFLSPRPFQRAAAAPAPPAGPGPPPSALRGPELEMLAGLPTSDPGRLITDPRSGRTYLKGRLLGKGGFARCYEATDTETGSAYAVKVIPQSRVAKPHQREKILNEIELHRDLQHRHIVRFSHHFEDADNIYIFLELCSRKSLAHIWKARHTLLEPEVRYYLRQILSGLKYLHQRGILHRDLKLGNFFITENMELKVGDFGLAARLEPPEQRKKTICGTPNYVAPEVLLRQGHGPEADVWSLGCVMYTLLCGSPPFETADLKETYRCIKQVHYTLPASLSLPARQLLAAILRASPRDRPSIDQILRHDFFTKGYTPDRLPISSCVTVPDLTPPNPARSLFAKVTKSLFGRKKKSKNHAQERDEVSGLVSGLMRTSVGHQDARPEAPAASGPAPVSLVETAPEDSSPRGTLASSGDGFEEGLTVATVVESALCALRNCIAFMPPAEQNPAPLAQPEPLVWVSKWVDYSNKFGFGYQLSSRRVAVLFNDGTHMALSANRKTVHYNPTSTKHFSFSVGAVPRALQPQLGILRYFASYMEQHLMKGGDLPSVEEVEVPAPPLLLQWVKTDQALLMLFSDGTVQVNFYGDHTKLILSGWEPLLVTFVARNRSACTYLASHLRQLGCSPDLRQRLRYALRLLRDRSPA
Sequence of Serine/threonine-protein kinase Chk1 (O14757 whole entry): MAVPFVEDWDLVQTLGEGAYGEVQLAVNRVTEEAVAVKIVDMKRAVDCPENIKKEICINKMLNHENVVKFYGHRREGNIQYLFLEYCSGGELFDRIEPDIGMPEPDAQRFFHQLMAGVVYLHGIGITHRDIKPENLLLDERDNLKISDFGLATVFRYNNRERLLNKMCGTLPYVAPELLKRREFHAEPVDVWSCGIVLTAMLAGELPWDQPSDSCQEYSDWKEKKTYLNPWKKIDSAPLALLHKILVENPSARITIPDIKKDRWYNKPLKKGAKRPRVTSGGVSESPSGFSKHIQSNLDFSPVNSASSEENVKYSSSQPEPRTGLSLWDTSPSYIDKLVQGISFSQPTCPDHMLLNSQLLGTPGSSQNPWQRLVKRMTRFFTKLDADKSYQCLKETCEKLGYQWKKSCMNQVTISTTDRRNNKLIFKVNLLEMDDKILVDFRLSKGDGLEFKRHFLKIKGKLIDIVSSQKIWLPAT
Sequence of Interleukin-1 receptor-associated kinase 4 (Q9NWZ3 whole entry): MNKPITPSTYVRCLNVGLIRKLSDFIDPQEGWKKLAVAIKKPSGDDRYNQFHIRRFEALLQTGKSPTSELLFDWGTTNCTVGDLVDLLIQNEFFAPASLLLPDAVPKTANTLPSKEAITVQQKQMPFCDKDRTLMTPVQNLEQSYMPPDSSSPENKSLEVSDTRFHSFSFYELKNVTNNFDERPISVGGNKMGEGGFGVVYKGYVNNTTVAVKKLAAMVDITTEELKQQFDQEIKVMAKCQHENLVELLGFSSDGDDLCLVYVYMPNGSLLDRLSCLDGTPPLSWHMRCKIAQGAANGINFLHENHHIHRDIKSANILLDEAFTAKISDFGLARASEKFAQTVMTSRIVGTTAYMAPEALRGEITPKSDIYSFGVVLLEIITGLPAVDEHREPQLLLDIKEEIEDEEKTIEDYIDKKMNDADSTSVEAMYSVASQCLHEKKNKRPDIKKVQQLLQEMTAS
Sequence of Tyrosine-protein kinase Lck (P06239 whole entry): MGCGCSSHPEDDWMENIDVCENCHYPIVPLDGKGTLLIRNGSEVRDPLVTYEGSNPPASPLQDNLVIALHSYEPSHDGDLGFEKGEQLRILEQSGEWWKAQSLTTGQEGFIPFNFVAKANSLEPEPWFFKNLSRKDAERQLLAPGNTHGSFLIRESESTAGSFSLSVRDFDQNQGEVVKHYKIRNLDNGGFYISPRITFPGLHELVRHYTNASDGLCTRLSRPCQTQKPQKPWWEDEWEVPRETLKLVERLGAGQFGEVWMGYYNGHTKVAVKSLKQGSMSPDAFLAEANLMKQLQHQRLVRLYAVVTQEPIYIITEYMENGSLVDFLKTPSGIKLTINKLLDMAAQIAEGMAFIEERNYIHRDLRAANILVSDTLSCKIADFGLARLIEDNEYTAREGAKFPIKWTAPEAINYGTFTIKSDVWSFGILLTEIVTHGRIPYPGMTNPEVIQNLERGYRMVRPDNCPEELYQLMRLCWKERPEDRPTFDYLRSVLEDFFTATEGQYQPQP

`CCN(Cc1cc(Nc2nc(C)cn3c(-c4cn[nH]c4)cnc23)sn1)C(C)(C)CO`: the IC50 was below 1 nM in data set [1]; above 100 nM in [2]; at most 4 nM on Aurora kinase A; 100 nM at Ephrin type-B receptor 4; below 1 nM in data set [3]; above 100 nM in data set [4]. The IC50 in data set [5], in [6] and in data set [7] was above 100 nM each time.

In the case of `Cc1cn2c(-c3cn[nH]c3)cnc2c(Nc2cc(CN3CCC(F)(F)C3)ns2)n1.Cl`, the AUC(0-t) at 24 h was 12.2 µM·h in data set [8]; 1.7 µM·h in data set [12]; 0.9 µM·h in data set [17]; 6.9 µM·h in [18]; 9.4 µM·h in data set [24]. The compound also returned an AUC in data set [9] of 6.9 µM·h. For the same compound, the values for the bioavailability in data set [10], in data set [14] and in data set [16] were 60%, 2% and 19%, respectively. The IC50 was above 100 nM in data set [2]; at most 4 nM at Aurora kinase A; 770 nM at Ephrin type-B receptor 4; 550 nM in data set [3]; 640 nM in data set [19]; above 100 nM in [5]. For the same compound, the figures for the IC50 in data set [22], in data set [6] and in [7] were 1000 nM, above 100 nM and above 100 nM, respectively. For the same compound, the clearance in [11] came out at 18 mL/min/kg; in data set [13] it was 31 mL/min/kg; in data set [15] it was 33 mL/min/kg; in [20] it was 33 mL/min/kg; in data set [21] it was 127 mL/min/kg. Also, the AUC(0-t) at 6 h in data set [23] came out at 1.61 µM·h.

With `Cl.[2H]C([2H])(c1cc(Nc2nc(C)cn3c(-c4cn[nH]c4)cnc23)sn1)N1CCC(F)(F)C1`, the AUC(0-t) at 24 h is 63.3 µM·h in data set [8]; 5.1 µM·h in data set [12]; 5.9 µM·h in [17]; 62.1 µM·h in [18]; 9.5 µM·h in data set [26]; 35.9 µM·h in [24]. The figures for the bioavailability in [10], in data set [14] and in data set [16] were 37%, 2% and 33%, respectively. The IC50 is above 100 nM in [2]; at most 4 nM on Aurora kinase A; 700 nM on Ephrin type-B receptor 4; 340 nM in data set [3]; 200 nM in data set [19]; above 100 nM in [5]. In addition, the IC50 in data set [22] was 640 nM; in data set [6], above 100 nM; in data set [7], above 100 nM. Further, the clearance stood at 6.3 mL/min/kg in data set [15], 4.2 mL/min/kg in data set [25], 6.3 mL/min/kg in [20] and 20.3 mL/min/kg in data set [21]. Besides, in [23], the AUC(0-t) at 6 h was 4.73 µM·h.
